20 compounds from patent US20210380595A1 (ARAXES PHARMA LLC, priority 2018, published 2021) can be followed below.

The target in the first assay is T1, KRAS G12C 1-169, his-tagged protein, GDP-loaded (Homo sapiens, UniProt P01116, G12C).
T1 construct: KRAS G12C 1-169, his-tagged protein, GDP-loaded
As to the kind of experiment: Biochemical assay: covalent modification of KRAS G12C measured by mass spectrometry (RapidFire/TOF or Q-Exactive). Also: time not given here. The class given is binding. The note with it: tested at 32 μM. In a few lines: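 GDP-loaded KRAS G12C 1-169 (his-tagged, 2 μM or 0.5 μM in 20 mM Hepes, 150 mM NaCl, 1 mM MgCl2) reacted with compound at 32 μM or 8 μM final, then quenched with formic acid. Intact-protein LC-MS (RapidFire/TOF or Q-Exactive) with charge-envelope deconvolution; % modification from modified vs unmodified peak intensities.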
On to `C=CC(=O)N1CC2(CCN(c3cc(NCCN4CCCC4)c(F)c(-c4c(C)ccc5[nH]ncc45)c3C#N)CC2)C1` [Compound I-120, 6-(2-acryloyl-2,7-diazaspiro[3.5]nonan-7-yl)-3-fluoro-2-(5-methyl-1H-indazol-4-yl)-4-((2-(pyrrolidin-1-yl)ethyl)amino) benzonitrile], for which the Bind % result is “+ (+ indicates binding activity greater than 0% and up to 50%)”.

Turning to `C=CC(=O)N1CC2(CCN(c3cc(N4CCCC4)c(F)c(-c4c(C)ccc5[nH]ncc45)c3C#N)CC2)C1` [Compound I-121, 6-(2-acryloyl-2,7-diazaspiro[3.5]nonan-7-yl)-3-fluoro-2-(5-methyl-1H-indazol-4-yl)-4-(pyrrolidin-1-yl)benzonitrile], the Bind % entry was “+ (+ indicates binding activity greater than 0% and up to 50%)”.

On to `C=CC(=O)N1CC2(CCN(c3cc(OCc4ccccn4)c(Cl)c(-c4c(C)ccc5[nH]ncc45)c3C#N)CC2)C1` [Compound I-122, 6-(2-acryloyl-2,7-diazaspiro[3.5]nonan-7-yl)-3-chloro-2-(5-methyl-1H-indazol-4-yl)-4-(pyridin-2-ylmethoxy) benzonitrile], for which the Bind % entry is on record as “++ (++ indicates binding activity from 50 to 75%)”.

As for `C=CC(=O)N1CC2(CCN(c3cc(N4CC(N5CCOCC5)C4)c(F)c(-c4c(C)ccc5[nH]ncc45)c3C#N)CC2)C1` [Compound I-123, 6-(2-acryloyl-2,7-diazaspiro[3.5]nonan-7-yl)-3-fluoro-2-(5-methyl-1H-indazol-4-yl)-4-(3-morpholino-azetidin-1-yl)benzonitrile], the Bind % entry was “+ (+ indicates binding activity greater than 0% and up to 50%)”.

On to `C=CC(=O)N1CC2(CCN(c3cc(N4CCOCC4)c(Cl)c(-c4c(C)ccc5[nH]ncc45)c3C#N)CC2)C1` [Compound I-124, 6-(2-acryloyl-2,7-diazaspiro[3.5]nonan-7-yl)-3-chloro-2-(5-methyl-1H-indazol-4-yl)-4-morpholino-benzonitrile], for which the Bind % entry was “+ (+ indicates binding activity greater than 0% and up to 50%)”.

Take `C=CC(=O)N1CC2(CCN(c3cc(OCCCN(C)C)c(Cl)c(-c4c(C)ccc5[nH]ncc45)c3C#N)CC2)C1` [Compound I-125, 6-(2-acryloyl-2,7-diazaspiro[3.5]nonan-7-yl)-3-chloro-4-(3-(dimethylamino)propoxy)-2-(5-methyl-1H-indazol-4-yl)benzonitrile]: the Bind % result was “++ (++ indicates binding activity from 50 to 75%)”.

`C=CC(=O)N1CC2(CCN(c3cc(OC[C@H]4CCCN4C)c(F)c(-c4c(C)ccc5[nH]ncc45)c3C#N)CC2)C1` [Compound I-127, 6-(2-acryloyl-2,7-diazaspiro[3.5]nonan-7-yl)-3-fluoro-2-(5-methyl-1H-indazol-4-yl)-4-(((R)-1-methylpyrrolidin-2-yl)methoxy) benzonitrile]: the Bind % result is reported as “++ (++ indicates binding activity from 50 to 75%)”.

With `C=CC(=O)N1CC2(CCN(c3cc(OC[C@@H]4CCCN4C)c(F)c(-c4c(C)ccc5[nH]ncc45)c3C#N)CC2)C1` [Compound I-128, 6-(2-acryloyl-2,7-diazaspiro[3.5]nonan-7-yl)-3-fluoro-2-(5-methyl-1H-indazol-4-yl)-4-(((S)-1-methylpyrrolidin-2-yl)methoxy) benzonitrile], the Bind % result is “+ (+ indicates binding activity greater than 0% and up to 50%)”.

Consider `C=CC(=O)N1CC2(CCN(c3ccc(OCC(F)(F)F)c(-c4c(C)ccc5[nH]ncc45)c3C#N)CC2)C1` [Compound I-130, 6-(2-acryloyl-2,7-diazaspiro[3.5]nonan-7-yl)-2-(5-methyl-1H-indazol-4-yl)-3-(2,2,2-trifluoroethoxy) benzonitrile], for which the Bind % entry was “+ (+ indicates binding activity greater than 0% and up to 50%)”.

`C=CC(=O)N1CC2(CCN(c3cc(N(C)CCN4CCCC4)c(F)c(-c4c(C)ccc5[nH]ncc45)c3C#N)CC2)C1` [Compound I-131, 6-(2-acryloyl-2,7-diazaspiro[3.5]nonan-7-yl)-3-fluoro-4-(methyl(2-(pyrrolidin-1-yl)ethyl)amino)-2-(5-methyl-1H-indazol-4-yl)benzonitrile]: the Bind % result is “+ (+ indicates binding activity greater than 0% and up to 50%)”.

Take `C=CC(=O)N1CC2(CCN(c3cc(OC)c(Cl)c(-c4c(C)ccc5[nH]ncc45)c3C#N)CC2)C1` [Compound I-132, 6-(2-acryloyl-2,7-diazaspiro[3.5]nonan-7-yl)-3-chloro-4-methoxy-2-(5-methyl-1H-indazol-4-yl)benzonitrile]: the Bind % entry was “+ (+ indicates binding activity greater than 0% and up to 50%)”.

As to `C=CC(=O)N1CC2(CCN(c3cc(NCCc4ccccn4)c(F)c(-c4c(C)ccc5[nH]ncc45)c3C#N)CC2)C1` [Compound I-133, 6-(2-acryloyl-2,7-diazaspiro[3.5]nonan-7-yl)-3-fluoro-2-(5-methyl-1H-indazol-4-yl)-4-((2-(pyridin-2-yl)ethyl)amino) benzonitrile], the Bind % result is “+ (+ indicates binding activity greater than 0% and up to 50%)”.

Take `C=CC(=O)N1CC2(CCN(c3cc(OCCN4CCCC4)c(F)c(-c4c(C)ccc5[nH]ncc45)c3C#N)CC2)C1` [Compound I-135, 6-(2-acryloyl-2,7-diazaspiro[3.5]nonan-7-yl)-3-fluoro-2-(5-methyl-1H-indazol-4-yl)-4-(2-(pyrrolidin-1-yl)ethoxy) benzonitrile]: the Bind % entry was “+ (+ indicates binding activity greater than 0% and up to 50%)”.

Consider `C=CC(=O)N1CC2(CCN(c3cccc(-c4c(C)ccc5[nH]ncc45)c3C#N)C2)C1CC` (centres unmarked) [Compound I-137, 2-(2-acryloyl-1-ethyl-2,6-diazaspiro[3.4]octan-6-yl)-6-(5-methyl-1H-indazol-4-yl)benzonitrile], for which the Bind % entry was “+ (+ indicates binding activity greater than 0% and up to 50%)”.

As to `C=CC(=O)N1CC2(CCN(c3cc(OCc4ccccn4)cc(-c4c(C)ccc5[nH]ncc45)c3C#N)C2)C1CC` (centres unmarked) [Compound I-138], the Bind % result was “++ (++ indicates binding activity from 50 to 75%)”.

Consider `C=CC(=O)N1CC2(CCN(c3cccc(-c4c(C)ccc5[nH]ncc45)c3C#N)C2)C1C(C)C` (centres unmarked) [Compound I-139, 2-(2-acryloyl-1-isopropyl-2,6-diazaspiro[3.4]octan-6-yl)-6-(5-methyl-1H-indazol-4-yl)benzonitrile], for which the Bind % result was “+ (+ indicates binding activity greater than 0% and up to 50%)”.

The same assay, now with this note: tested at a concentration of 8 μM.
Regarding `C=CC(=O)N1CC2(CCN(c3cccc(-c4c(C)ccc5[nH]ncc45)c3C#N)C2)C1C` (centres unmarked) [Compound I-126, 2-(2-acryloyl-1-methyl-2,6-diazaspiro[3.4]octan-6-yl)-6-(5-methyl-1H-indazol-4-yl)benzonitrile], the Bind % result is “+ (+ indicates binding activity greater than 0% and up to 50%)”.

On to `C=CC(=O)N1CC2(CCN(c3cc(OCc4ccccn4)cc(-c4c(C)ccc5[nH]ncc45)c3C#N)C2)C1C` (centres unmarked) [Compound I-129, 2-(2-acryloyl-1-methyl-2,6-diazaspiro[3.4]octan-6-yl)-6-(5-methyl-1H-indazol-4-yl)-4-(pyridin-2-ylmethoxy) benzonitrile], for which the Bind % result was “++ (++ indicates binding activity from 50 to 75%)”.

Turning to `C=CC(=O)N1CC2(CCN(c3ccc(F)c(-c4c(C)ccc5[nH]ncc45)c3C#N)C2)C1C` (centres unmarked) [Compound I-134, 6-(2-acryloyl-1-methyl-2,6-diazaspiro[3.4]octan-6-yl)-3-fluoro-2-(5-methyl-1H-indazol-4-yl)benzonitrile], the Bind % entry is listed as “++ (++ indicates binding activity from 50 to 75%)”.

Consider `C=CC(=O)N1CC2(CCN(c3cc(N4CCC(CN(C)C)CC4)c(F)c(-c4c(C)ccc5[nH]ncc45)c3C#N)CC2)C1` [Compound I-136, 6-(2-acryloyl-2,7-diazaspiro[3.5]nonan-7-yl)-4-(4-((dimethylamino)methyl)piperidin-1-yl)-3-fluoro-2-(5-methyl-1H-indazol-4-yl)benzonitrile], for which the Bind % entry was “+ (+ indicates binding activity greater than 0% and up to 50%)”.
